Among the test systems are MCF7 breast; SK-MEL-5 melanoma; IGROV1 ovarian; HOP-92 NSCLC; EKVX NSCLC; HT29 colon; SR leukemia; HCT-15 colon; K-562 leukemia; SF-268 CNS.
Holding throughout (assay): inhibition of tumour cell growth, NCI panel, 48 h

In PubChem BioAssay (NCI) one finds GI50 and TGI data, which are given here for eight molecules.

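Test compounds were applied to cells in 96-well plates for 48 hours at 5 doses. GI50 = concentration required for 50% inhibition of growth. The concentration for full growth arrest is given as TGI.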

With `O=c1c(F)cn(Cc2ccccc2CCl)c(=O)n1Cc1ccccc1CCl`, the GI50 in the assay on MCF7 breast is 1.16 µM; in the assay with SK-MEL-5 melanoma, 1.65 µM; in the assay with IGROV1 ovarian it was 1.33 µM; with HOP-92 NSCLC, 2.35 µM; with EKVX NSCLC it was 3.07 µM; in the assay on HT29 colon, 2.01 µM. Further, the GI50 was 0.796 µM with SR leukemia, 1.83 µM in the assay on HCT-15 colon, 1.89 µM with K-562 leukemia and 2.04 µM in the assay on SF-268 CNS. Besides, the TGI in the assay on MCF7 breast is 6.11 µM; in the assay with SK-MEL-5 melanoma it was 3.44 µM; in the assay with IGROV1 ovarian, 2.99 µM; in the assay with HOP-92 NSCLC, 6.85 µM; in the assay with EKVX NSCLC, 9.22 µM; with HT29 colon it was 4.71 µM. The TGI with SR leukemia is 3.07 µM; with HCT-15 colon it was 4.45 µM; in the assay with K-562 leukemia it was > 100 µM; in the assay on SF-268 CNS, 4.81 µM.

With `CNC(=O)c1nn(C)c2c1C(C)(C)Cc1cnc(Nc3ccc(N4CCN(C)CC4)cc3)nc1-2`, the GI50 in the assay with MCF7 breast is 0.238 µM; with SK-MEL-5 melanoma, 7.44 µM; in the assay with IGROV1 ovarian, 0.182 µM; with HOP-92 NSCLC, 0.174 µM; in the assay with EKVX NSCLC, 1.93 µM; in the assay on HT29 colon, 0.94 µM. Also, the GI50 with SR leukemia was 0.452 µM; in the assay with HCT-15 colon it was 0.337 µM; in the assay on K-562 leukemia, 0.356 µM; in the assay with SF-268 CNS, 1.34 µM. The TGI in the assay with MCF7 breast was > 10 µM; in the assay with SK-MEL-5 melanoma, > 10 µM; in the assay on IGROV1 ovarian, 1.6 µM; in the assay with HOP-92 NSCLC, > 2.35 µM; with EKVX NSCLC, > 10 µM; in the assay with HT29 colon, > 10 µM. For the same molecule, the TGI is > 5.71 µM in the assay with SR leukemia, > 10 µM in the assay on HCT-15 colon, > 7.77 µM in the assay on K-562 leukemia and > 10 µM in the assay with SF-268 CNS.

Take `COc1cnc2c(c1)C(=O)c1c-2n(CCCN2CCN(C)CC2)c(=O)c2cc([N+](=O)[O-])ccc12`: the GI50 in the assay with MCF7 breast was 0.0162 µM; in the assay on SK-MEL-5 melanoma it was 1.31 µM; in the assay on IGROV1 ovarian, 0.351 µM; in the assay on HOP-92 NSCLC it was 1.82 µM; in the assay with EKVX NSCLC, 0.514 µM; in the assay on HT29 colon, 0.167 µM. The GI50 was 0.0249 µM in the assay on SR leukemia, 0.249 µM in the assay with HCT-15 colon, 0.154 µM in the assay on K-562 leukemia and 0.206 µM in the assay on SF-268 CNS. Moreover, the TGI was found to be 1.2 µM in the assay on MCF7 breast; 2.64 µM in the assay on SK-MEL-5 melanoma; 2.26 µM with IGROV1 ovarian; 4.37 µM in the assay on HOP-92 NSCLC; 2.05 µM in the assay with EKVX NSCLC; 0.352 µM with HT29 colon. Moreover, the TGI in the assay on SR leukemia came out at 0.365 µM; with HCT-15 colon, 1.26 µM; with K-562 leukemia, 0.395 µM; in the assay on SF-268 CNS, 1.64 µM.

On to `c1c[nH]c(CN2CCOCC2)n1`, for which the TGI in the assay on MCF7 breast, in the assay on SK-MEL-5 melanoma, with IGROV1 ovarian, in the assay with HOP-92 NSCLC, with EKVX NSCLC and in the assay on HT29 colon was > 100 µM in each case. Further, the TGI in the assay with SR leukemia, in the assay with HCT-15 colon, with K-562 leukemia and in the assay on SF-268 CNS was > 100 µM throughout.

In the case of `O=C(O)[C@H](c1ccccc1)[C@@H](C(=O)O)c1ccccc1`, the TGI in the assay on MCF7 breast, in the assay with SK-MEL-5 melanoma, in the assay with IGROV1 ovarian, in the assay on HOP-92 NSCLC, with EKVX NSCLC and in the assay on HT29 colon was > 100 µM throughout. Besides, the TGI in the assay on SR leukemia, in the assay with HCT-15 colon, with K-562 leukemia and in the assay on SF-268 CNS was > 100 µM in each case.

In the case of `CCOC(=O)/C(C#N)=C\C=C(/Cl)c1ccc(Cl)cc1`, the GI50 is 25.6 µM with MCF7 breast; 18.4 µM with SK-MEL-5 melanoma; 5.78 µM with IGROV1 ovarian; 17.5 µM in the assay on HOP-92 NSCLC; 26.5 µM in the assay on EKVX NSCLC; 24 µM in the assay with HT29 colon. Moreover, the GI50 in the assay with SR leukemia is 4.78 µM; with HCT-15 colon, 15.1 µM; in the assay on K-562 leukemia, 12.9 µM; in the assay with SF-268 CNS, 27.9 µM. For the same molecule, the TGI with MCF7 breast is > 78.7 µM; with SK-MEL-5 melanoma, 39 µM; with IGROV1 ovarian, 27.1 µM; in the assay with HOP-92 NSCLC, 47.2 µM; with EKVX NSCLC, 63.9 µM; in the assay with HT29 colon it was > 100 µM. Also, the TGI was > 100 µM in the assay with SR leukemia, 33.6 µM in the assay on HCT-15 colon, > 64.3 µM with K-562 leukemia and > 77 µM with SF-268 CNS.

As to `O=C(N/N=C/c1ccccc1O)c1ccccc1`, the GI50 in the assay on MCF7 breast was 2.86 µM; in the assay on SK-MEL-5 melanoma, 2.97 µM; in the assay on IGROV1 ovarian it was 1.84 µM; in the assay on HOP-92 NSCLC, 5.84 µM; in the assay on EKVX NSCLC it was 2 µM; in the assay with HT29 colon, 3.43 µM. Moreover, the GI50 in the assay with SR leukemia was 1.79 µM; with HCT-15 colon it was 0.893 µM; with K-562 leukemia, 3.59 µM; with SF-268 CNS it was 1.07 µM. For the same molecule, the TGI with MCF7 breast, in the assay on SK-MEL-5 melanoma, with IGROV1 ovarian, with HOP-92 NSCLC, with EKVX NSCLC and in the assay on HT29 colon was > 100 µM each time. For the same molecule, the TGI in the assay on SR leukemia is 28.4 µM; in the assay on HCT-15 colon it was > 100 µM; with K-562 leukemia, > 100 µM; in the assay on SF-268 CNS, > 100 µM.

In the case of `C=C1C(=O)O[C@H]2[C@H]1CC/C(C=Nc1c(N)cc(C(F)(F)F)cc1Br)=C\CC[C@@]1(C)O[C@@H]21`, the GI50 with MCF7 breast is 0.982 µM; in the assay with SK-MEL-5 melanoma, 1.35 µM; in the assay on IGROV1 ovarian, 1.42 µM; with HOP-92 NSCLC, 1.17 µM; with EKVX NSCLC, 1.84 µM; in the assay with HT29 colon, 1.63 µM. Also, the GI50 with SR leukemia was 1.08 µM; with HCT-15 colon, 1.55 µM; with K-562 leukemia it was 1.99 µM; with SF-268 CNS, 1.4 µM. The TGI was 4.48 µM in the assay with MCF7 breast; 2.64 µM in the assay on SK-MEL-5 melanoma; 3.01 µM in the assay with IGROV1 ovarian; 2.75 µM in the assay with HOP-92 NSCLC; 5.1 µM in the assay with EKVX NSCLC; 3.13 µM in the assay with HT29 colon. The TGI in the assay on SR leukemia is 6.73 µM; in the assay on HCT-15 colon it was 4.24 µM; in the assay with K-562 leukemia it was 6.87 µM; with SF-268 CNS, 3.34 µM.
